SMILES strings stand for the structures. pIC50: −log10 of the molar value.

In general, pIC50 refers to the IC50 on a negative log10 scale, so that one unit is a factor of ten. The half-life is how long it takes for the measured level to halve. The Tmax is the time at which the peak concentration occurs.

The nature of data set [1]: Activation of rabbit sGC assessed as induction of preconstricted aortic ring relaxation. Particulars: Oryctolagus cuniculus.
Data set [2] can be described thus: Half life in human. It is filed as ADME.
The target in data set [3] is T1, Endothelin-1 receptor (Homo sapiens, UniProt P25101).
T1 sequence (P25101 whole entry): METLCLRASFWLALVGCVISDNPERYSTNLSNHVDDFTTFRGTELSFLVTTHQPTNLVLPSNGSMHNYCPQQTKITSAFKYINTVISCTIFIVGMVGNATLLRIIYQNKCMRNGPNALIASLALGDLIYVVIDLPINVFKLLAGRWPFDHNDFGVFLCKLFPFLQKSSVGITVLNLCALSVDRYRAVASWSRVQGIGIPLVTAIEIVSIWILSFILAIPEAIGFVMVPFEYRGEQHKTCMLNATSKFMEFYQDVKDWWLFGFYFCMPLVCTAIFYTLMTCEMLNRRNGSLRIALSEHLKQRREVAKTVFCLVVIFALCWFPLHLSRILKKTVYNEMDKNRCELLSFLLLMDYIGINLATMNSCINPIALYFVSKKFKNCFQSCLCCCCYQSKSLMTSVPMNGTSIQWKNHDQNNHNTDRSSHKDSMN
Briefly: Binding affinity to recombinant human ETA.

In data set [4] the target is T2, Endothelin receptor type B (Homo sapiens, UniProt P24530).
T2 sequence (P24530 whole entry): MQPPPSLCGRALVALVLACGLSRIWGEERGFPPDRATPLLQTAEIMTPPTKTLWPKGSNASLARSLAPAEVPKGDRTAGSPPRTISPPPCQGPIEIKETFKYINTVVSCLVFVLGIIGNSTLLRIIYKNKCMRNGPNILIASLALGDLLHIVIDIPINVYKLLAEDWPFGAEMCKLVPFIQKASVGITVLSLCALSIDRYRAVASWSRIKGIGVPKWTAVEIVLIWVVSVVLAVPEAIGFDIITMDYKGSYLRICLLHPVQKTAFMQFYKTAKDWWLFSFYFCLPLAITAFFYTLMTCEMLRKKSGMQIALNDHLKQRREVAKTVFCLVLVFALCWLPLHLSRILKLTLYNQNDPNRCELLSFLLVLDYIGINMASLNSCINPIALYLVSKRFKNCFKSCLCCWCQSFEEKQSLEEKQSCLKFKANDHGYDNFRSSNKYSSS
Kind of data set: Binding affinity to human placenta ETB. It is filed as tissue-based.

A short description of data set [5]: Tmax in human. It is filed as ADME.
Data set [6] is described as follows: Tmax in po dosed human. The settings on record: in vivo. It is filed as ADME, organism-based.
A short description of data set [7]: Half life in po dosed human. The settings on record: in vivo. It is filed as ADME, organism-based.

As for `OCc1ccc(-c2nn(Cc3ccccc3F)c3ccccc23)o1`, in data set [1], the negative logarithm of the IC50 (pIC50) was 5.31.
The molecule `CN1CC(=O)N2[C@H](c3ccc4c(c3)OCO4)c3[nH]c4ccccc4c3C[C@@H]2C1=O` had a half-life in data set [2] of 17.5 h.
For the molecule `OCc1ccc(-c2nn(Cc3ccccc3)c3ccccc23)o1`, the pIC50 in data set [1] was 5.00.
For the molecule `O=C(O)COC[C@H]1CC[C@H](COC(=O)N(c2ccccc2)c2ccc(Cl)cc2)CC1`, in data set [2], the half-life was 24 h.
For the molecule `Nc1nc(-c2nn(Cc3ccccc3F)c3ncccc23)nc(N)c1N1CCOCC1`, in data set [1], the pIC50 was 7.00.
Turning to `Nc1nc(-c2nn(Cc3ccccc3F)c3ncccc23)ncc1C1CC1`, in data set [1], the pIC50 was 6.52.
`O=S(=O)(Nc1ncnc(OCCO)c1-c1ccccc1)c1ccc(C(F)(F)F)cc1`: the figures for the negative logarithm of the IC50 (pIC50) in data set [3] and in data set [4] were 4.74 and 5.70, respectively.
With `OC(CNc1nc(-c2cc(-c3ccon3)n(Cc3ccccc3F)n2)ncc1F)(C(F)(F)F)C(F)(F)F`, the half-life in data set [2] was 24 h.
For `CCCOc1ccc(S(=O)(=O)NCCC2CCCN2C)cc1-c1nc2c(CCC)nn(C)c2c(=O)[nH]1` (stereo not drawn), in data set [2], the half-life is 12.3 h. Moreover, the Tmax in data set [5] worked out at 0.8 h.
As for `COC(=O)N(C)c1c(N)nc(-c2nn(Cc3ccccc3F)c3ncccc23)nc1N` [RIOCIGUAT], in data set [6], the time to peak (Tmax) stood at 0.5 h. Also, the half-life in data set [7] is 5 h. For the same molecule, in data set [1], the pIC50 was 6.92.
As to `NC(=O)[C@](O)(CNc1nc(-c2cc(-c3ccon3)n(Cc3ccccc3F)n2)ncc1F)C(F)(F)F` [OLINCIGUAT], the half-life in data set [2] is 30 h. For the same molecule, the time to peak (Tmax) in data set [5] was determined as 2 h.
Turning to `OCc1ccc(-c2nn(Cc3ccccc3F)c3ncccc23)o1`, the pIC50 in data set [1] is 5.77.
The same measure, in the same setting: the same measure for `Nc1ccnc(-c2nn(Cc3ccccc3F)c3ncccc23)n1`: 6.57.

Values taken from ChEMBL document CHEMBL5244271, “Targeted Drugs for Treatment of Pulmonary Arterial Hypertension: Past, Present, and Future Perspectives” (J Med Chem, 2020).
